Here are results for 21 compounds from patent US8952073B2, “Estrogenic compounds, process for their production and pharmaceutical uses thereof” (The University of Ottawa, priority 2008, dated 2015).

Data set [1] in a line: in vitro.
For data set [2], the target named is T1, ERβ (Homo sapiens, UniProt Q92731). The experiment in a line: Relative transcription assay (RTA), estrogen response element driven luciferase, estrogen beta receptor. It counts as cell-based. Conditions: for RTAβ: relative transcription activity, estradiol=100; for hormonal potency / transcriptional activation at ERβ, in words: result in words.
T1 sequence (Q92731 whole entry): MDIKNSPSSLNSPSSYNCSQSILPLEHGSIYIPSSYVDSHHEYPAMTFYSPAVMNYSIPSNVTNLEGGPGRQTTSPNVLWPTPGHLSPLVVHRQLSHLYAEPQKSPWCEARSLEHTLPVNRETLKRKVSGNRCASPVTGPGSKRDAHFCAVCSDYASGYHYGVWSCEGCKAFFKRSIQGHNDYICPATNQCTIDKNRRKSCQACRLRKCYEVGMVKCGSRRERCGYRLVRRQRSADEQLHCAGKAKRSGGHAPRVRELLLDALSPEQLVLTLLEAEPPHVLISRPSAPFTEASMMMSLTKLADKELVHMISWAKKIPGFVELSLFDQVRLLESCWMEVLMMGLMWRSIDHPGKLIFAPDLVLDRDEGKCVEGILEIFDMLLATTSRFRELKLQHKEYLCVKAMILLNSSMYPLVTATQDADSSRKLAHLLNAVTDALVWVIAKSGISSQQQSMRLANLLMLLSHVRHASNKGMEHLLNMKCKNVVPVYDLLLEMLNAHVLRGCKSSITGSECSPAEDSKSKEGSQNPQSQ
For data set [3], the target named is T1, ERβ. The experiment in a line: Relative binding affinity (RBA), radiolabel competition assay, estrogen beta receptor. Conditions: for RBAβ: estradiol=100; for RBA for ERβ: relative to estradiol (set at 100%).
Data set [4] deals with T2, ERα (Homo sapiens, UniProt P03372).
T2 sequence (P03372 1-595): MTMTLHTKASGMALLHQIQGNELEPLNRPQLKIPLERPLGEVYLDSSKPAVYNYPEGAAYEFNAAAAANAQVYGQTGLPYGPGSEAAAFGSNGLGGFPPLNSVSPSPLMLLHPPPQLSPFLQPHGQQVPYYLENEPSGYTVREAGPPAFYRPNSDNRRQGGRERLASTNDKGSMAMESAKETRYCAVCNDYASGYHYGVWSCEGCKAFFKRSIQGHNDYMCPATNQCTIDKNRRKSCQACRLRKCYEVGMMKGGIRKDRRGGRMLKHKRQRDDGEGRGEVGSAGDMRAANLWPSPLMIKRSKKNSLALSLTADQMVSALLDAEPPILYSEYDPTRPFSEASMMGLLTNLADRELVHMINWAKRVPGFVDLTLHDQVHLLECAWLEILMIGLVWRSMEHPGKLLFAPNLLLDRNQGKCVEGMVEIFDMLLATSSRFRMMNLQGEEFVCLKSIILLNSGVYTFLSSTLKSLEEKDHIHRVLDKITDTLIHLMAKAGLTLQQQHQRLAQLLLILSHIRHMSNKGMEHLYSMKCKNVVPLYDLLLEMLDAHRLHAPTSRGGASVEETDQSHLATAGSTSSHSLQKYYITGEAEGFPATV
The experiment in a line: Relative transcription assay (RTA), estrogen response element driven luciferase, estrogen alpha receptor. The format is cell-based. Conditions: for RTAα: relative transcription activity, estradiol=100.

The target of data set [5] is T2, ERα. Put plainly: Relative binding affinity (RBA), radiolabel competition assay, estrogen alpha receptor. The settings on record: for RBAα: estradiol=100; for RBA for ERα: relative to estradiol (set at 100%).
For data set [6], the system named is ERβ vs. ERα. Conditions: literature values; cited from earlier work.
The test system of data set [7] is intact hepatocytes. The settings on record: read-out: LC50, 2 hour exposure.
Where [8] appears, read: double bond in ring C, mixtures except entries 16, 17, 19, 20, 25, 26.
Where [9] appears, read: double bond in ring C (C9-C11 or C9-C8), tested as mixtures except entries 16, 17, 19, 20, 25, 26.
The mark [10] stands for this setting: 9-hydroxy compounds, natural stereochemistry at C9.
[11] abbreviates: ring C saturated compounds, natural stereochemistry at C9.

“And” between values parts separate entries of the source, which are not always exact repeats. Equal values may be shown once. Read-outs that look alike come from different tables or passages of the source. Where only a bound is given, the exact number is not on record here.

`C[C@]12CC[C@@H]3c4ccc(O)cc4CC[C@H]3[C@@H]1CC[C@@H]2O` [Estradiol, 17β-estradiol, reference compound] showed a CC50 at 2 h in data set [1] of 400 to 450 µM. This compound returned an RTAβ in data set [2] of 100.

With `C[C@]12CCC(c3ccc(O)cc3Cl)=CC1CC[C@@H]2O` (stereo partly drawn) [Entry 20], in data set [2], the “Ratio RTAβ/RTAα” value came to 2.1 and the RTAβ came to 188. Also, in data set [3] (setting [8]), the RBAβ/RBAα was found to be 1.7. Moreover, in data set [3] (setting [9]), the RBAβ is reported as 331. Besides, in data set [4], the RTAα is 98. Besides, the RBAα in data set [5] (setting [9]) came to 195.

Regarding `C[C@]12CC[C@](O)(c3ccc(O)c(F)c3)CC1CC[C@@H]2O` (stereo partly drawn) [Entry 28], in data set [3] (setting [10]), the RBAβ/RBAα worked out at 13 and the RBAβ was found to be 0.12. The compound also showed an RBAα in data set [5] (setting [10]) of 0.009.

Consider `C[C@]12CC[C@H](c3cc(F)c(O)c(F)c3)CC1CC[C@@H]2O` (stereo partly drawn) [Entry 4], for which, in data set [3] (setting [11]), the RBAβ was 0.28 and the RBAβ/RBAα is 7.0. For the same compound, in data set [5] (setting [11]), the RBAα was 0.4.

Consider `C[C@]12CC[C@](O)(c3ccc(O)cc3F)CC1CC[C@@H]2O` (stereo partly drawn) [Entry 29], for which the “decrease in binding affinity” value in data set [3] (9-hydroxy compound compared to the saturated analog) was 37 fold. In data set [3] (setting [10]), this compound yielded an RBAβ/RBAα of 21 and an RBAβ of 3.6. In data set [5] (setting [10]), the RBAα turned out to be 0.17.

Regarding `C[C@]12CC[C@H](c3ccc(O)cc3Cl)CC1CC[C@@H]2O` (stereo partly drawn) [Entry 8], the RTAβ in data set [2] was 188. In addition, the RTAα in data set [4] is 88. The RBAα in data set [5] (setting [11]) stood at 55.3.

For `N#Cc1cc(-c2ccc(O)c(F)c2)cc2ccc(O)cc12` [WAY 202196], the “binding affinity ERβ/ERα ratio” value in data set [6] is recorded as 78.

In data set [3] (setting [10]), `C[C@]12CC[C@](O)(c3ccc(O)cc3)CC1CC[C@@H]2O` (stereo partly drawn) [Entry 27] showed an RBAβ/RBAα of 10 and an RBAβ of 0.1. For the same compound, in data set [5] (setting [10]), the RBAα was 0.01.

In data set [2], `Cc1cc(O)ccc1[C@H]1CC[C@@]2(C)C(CC[C@@H]2O)C1` (stereo partly drawn) [Entry 9] showed an RTAβ of 149. In data set [3] (setting [11]), this compound yielded an RBAβ of 33.6 and an RBAβ/RBAα of 11.9. In data set [4], this compound showed an RTAα of −9.7. This compound also showed an RBAα in data set [5] (setting [11]) of 2.8.

In the case of `C=Cc1cc(O)cc2nc(-c3ccc(O)c(F)c3)oc12` [ERB-041], the “binding affinity ERβ/ERα ratio” value in data set [6] is on record as 226.

On to `C[C@]12CC[C@H](c3ccc(O)cc3)CC1CC[C@@H]2O` (stereo partly drawn) [Entry 1], for which, in data set [1] (intact hepatocytes), the CC50 at 2 h lay in the range of 320 to 400 µM. For the same compound, in data set [2], the “Ratio RTAβ/RTAα” value was determined as 38. Also, the RTAβ is reported as 164 in data set [2] and 7.7 in data set [2] (listed as 1*). Also, the “selective binding, favouring ERβ by a factor” value in data set [3] (ERβ over ERα) came out at 15. In addition, the RBAβ in data set [3] (setting [11]) is 21.5. In data set [3], the “RBA for ERβ” value stood at 21.5%. Besides, in data set [3] (setting [11]), the RBAβ/RBAα came to 14.6. Besides, the RTAα in data set [4] is listed as 4.3; in data set [4] (listed as 1*) it was −8.9. The same compound had an RBAα in data set [5] (setting [11]) of 1.5. For the same compound, the “RBA for ERα” value in data set [5] was 1.7% and 1.5%.

As to `C[C@]12CCC(c3ccc(O)cc3CCSCc3ccccc3)=CC1CC[C@@H]2O` (stereo partly drawn) [Entry 26], in data set [2], the “Ratio RTAβ/RTAα” value was 2.2 and the RTAβ was found to be 15.6. The RBAβ/RBAα in data set [3] (setting [8]) was found to be 0.86. For the same compound, in data set [3] (setting [9]), the RBAβ is on record as 0.27. The RTAα in data set [4] is reported as 6.7. The RBAα in data set [5] (setting [9]) was found to be 0.31.

In the case of `C[C@]12CCC(c3cc(F)c(O)cc3F)=CC1CC[C@@H]2O` (stereo partly drawn) [Entry 17], the RBAβ/RBAα in data set [3] (setting [8]) worked out at 6.8. Moreover, in data set [3] (setting [9]), the RBAβ was found to be 3.3. In addition, in data set [5] (setting [9]), the RBAα was 0.38.

For `C[C@]12CC=C(c3ccc(O)cc3CCSCc3ccccc3)CC1CC[C@@H]2O` (stereo partly drawn) [Entry 25], the RBAβ/RBAα in data set [3] (setting [8]) was 2.2. Moreover, in data set [3] (setting [9]), the RBAβ was determined as 0.76. Besides, the RBAα in data set [5] (setting [9]) is 0.32.

On to `C[C@]12CC[C@H](c3cc(F)c(O)c(F)c3F)CC1CC[C@@H]2O` (stereo partly drawn) [Entry 7], for which the CC50 at 2 h in data set [1] (intact hepatocytes) was over 600 µM. In data set [2], the “Ratio RTAβ/RTAα” value is 4.8 and the RTAβ was determined as 53. In data set [3] (setting [11]), this compound came in with an RBAβ of 1.73 and an RBAβ/RBAα of 9.1. Besides, the “further reduction in binding, factor” value in data set [3] (in comparison with entry 3) is “about 10”. In data set [4], this compound returned an RTAα of 11. The CC50 in data set [7] is over 600 µM. The compound also gave an RBAα in data set [5] (setting [11]) of 0.19.

Take `C[C@]12CC[C@H](c3ccc(O)c(F)c3F)CC1CC[C@@H]2O` (stereo partly drawn) [Entry 5]: the CC50 at 2 h in data set [1] (intact hepatocytes) lay in the range of 155 to 200 µM. Moreover, in data set [2], the “Ratio RTAβ/RTAα” value amounted to 8.4 and the RTAβ was 151. In data set [3] (setting [11]), the RBAβ is reported as 42.8 and the RBAβ/RBAα is given as 9.3. Further, in data set [4], the RTAα worked out at 18. The same compound had an RBAα in data set [5] (setting [11]) of 4.6.

Take `C[C@]12CC[C@H](c3ccc(O)c(F)c3)CC1CC[C@@H]2O` (stereo partly drawn) [Entry 2]: in data set [1] (intact hepatocytes), the CC50 at 2 h was in the range of 400 to 450 µM. In data set [2], the RTAβ amounted to 14 and the “hormonal potency / transcriptional activation at ERβ, in words” value is “weak agonist for ERβ”. In addition, in data set [3] (setting [11]), the RBAβ was 8.7 and the RBAβ/RBAα is 8.7. In data set [3], the “RBA for ERβ” value came out at 8%. The compound also returned an RTAα in data set [4] of −8.3. In data set [5] (setting [11]), this compound yielded an RBAα of 1.0. For the same compound, the “RBA for ERα” value in data set [5] amounted to 1.0%.

In data set [1] (intact hepatocytes), `C[C@]12CC[C@H](c3ccc(O)cc3F)CC1CC[C@@H]2O` (stereo partly drawn) [Entry 3] yielded a CC50 at 2 h of 250 to 280 µM. In data set [2], the “Ratio RTAβ/RTAα” value was 3.6; the RTAβ is 162; the “hormonal potency / transcriptional activation at ERβ, in words” value is “both an ERα and an ERβ agonist”. In data set [3] (setting [11]), this compound registered an RBAβ of 135.5 and an RBAβ/RBAα of 5.0. Further, in data set [3] (result in words), the “RBA for the ERβ receptor compared with estradiol, in words” value is on record as “exceeded that of estradiol itself”. In data set [4], this compound gave an RTAα of 44. Moreover, the “transcriptional activation at ERα, in words” value in data set [4] (result in words) was “both an ERα and an ERβ agonist”. This compound also gave an RBAα in data set [5] (setting [11]) of 27.3.

In data set [3] (setting [10]), `C[C@]12CC[C@](O)(c3cc(F)c(O)c(F)c3)CC1CC[C@@H]2O` (stereo partly drawn) [Entry 30] showed an RBAβ/RBAα of 4.6 and an RBAβ of 0.023. In data set [5] (setting [10]), this compound came in with an RBAα of 0.005.

On to `C[C@]12CC=C(c3ccc(O)cc3Cl)CC1CC[C@@H]2O` (stereo partly drawn) [Entry 19], for which, in data set [2], the “Ratio RTAβ/RTAα” value is reported as 1.6 and the RTAβ was determined as 157. In addition, the RBAβ/RBAα in data set [3] (setting [8]) turned out to be 2.0. The RBAβ in data set [3] (setting [9]) came to 118. In addition, the RTAα in data set [4] was determined as 120. Besides, the RBAα in data set [5] (setting [9]) was determined as 60.

For `C[C@]12CC=C(c3cc(F)c(O)cc3F)CC1CC[C@@H]2O` (stereo partly drawn) [Entry 16], the RBAβ/RBAα in data set [3] (setting [8]) is 5.1. The RBAβ in data set [3] (setting [9]) amounted to 2.6. The RBAα in data set [5] (setting [9]) is listed as 0.44.
